Active and inactive are the calls of the source.

Results on four compounds are retold here after ChEMBL document CHEMBL1201862, “PubChem BioAssay data set” (2004).

Assay [1] deals with Caspase-9 (Homo sapiens, UniProt P55211). Description: inhibitors of purified CASP9 protease – biochemical, fluorescence, plate reader, cherry-picked samples, selectivity assay for caspase-6 inhibitor project, dose response (AID 743293).
Assay [2] deals with Caspase-8 (Homo sapiens, UniProt Q14790). Description: inhibitors of purified CASP8 protease – biochemical, Z-IETD-R110 fluorescence, cherry-picked samples, selectivity assay for caspase-6 inhibitor project, dose response (AID 743294).
Caspase-8, sequence (Q14790 217-374 limits assumed): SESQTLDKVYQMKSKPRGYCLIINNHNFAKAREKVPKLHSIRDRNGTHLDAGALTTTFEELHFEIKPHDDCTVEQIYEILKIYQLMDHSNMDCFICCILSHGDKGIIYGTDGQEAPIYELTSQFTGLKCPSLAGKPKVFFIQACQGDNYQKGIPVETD
Caspase-8, sequence (Q14790 385-479 limits assumed): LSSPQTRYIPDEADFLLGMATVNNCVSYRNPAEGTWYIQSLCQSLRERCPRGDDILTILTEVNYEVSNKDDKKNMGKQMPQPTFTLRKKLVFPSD
Assay [3] addresses T1, Caspase-6 (Homo sapiens, UniProt P55212).
T1 sequence (P55212 whole entry): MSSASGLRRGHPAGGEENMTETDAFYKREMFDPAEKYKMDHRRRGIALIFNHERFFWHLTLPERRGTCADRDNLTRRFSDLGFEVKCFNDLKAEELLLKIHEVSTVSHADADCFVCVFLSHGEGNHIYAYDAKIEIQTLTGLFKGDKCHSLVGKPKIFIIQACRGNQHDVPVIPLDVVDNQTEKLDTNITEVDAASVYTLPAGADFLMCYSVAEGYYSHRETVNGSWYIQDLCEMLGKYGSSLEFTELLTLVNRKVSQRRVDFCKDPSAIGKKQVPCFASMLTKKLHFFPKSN
In words: inhibition of CASP6 peptide cleavage – biochemical, VEID-R110 fluorescence, cherry-pick, dose response (AID 720632).

Assay [4] deals with DNA (cytosine-5)-methyltransferase 1 (Homo sapiens, UniProt P26358). In words: inhibition of DNA methylation by DNMT1 – biochemical, fluorescent molecular beacon, confirmation (AID 602386). The class given is functional.
DNA (cytosine-5)-methyltransferase 1, sequence (P26358 whole entry): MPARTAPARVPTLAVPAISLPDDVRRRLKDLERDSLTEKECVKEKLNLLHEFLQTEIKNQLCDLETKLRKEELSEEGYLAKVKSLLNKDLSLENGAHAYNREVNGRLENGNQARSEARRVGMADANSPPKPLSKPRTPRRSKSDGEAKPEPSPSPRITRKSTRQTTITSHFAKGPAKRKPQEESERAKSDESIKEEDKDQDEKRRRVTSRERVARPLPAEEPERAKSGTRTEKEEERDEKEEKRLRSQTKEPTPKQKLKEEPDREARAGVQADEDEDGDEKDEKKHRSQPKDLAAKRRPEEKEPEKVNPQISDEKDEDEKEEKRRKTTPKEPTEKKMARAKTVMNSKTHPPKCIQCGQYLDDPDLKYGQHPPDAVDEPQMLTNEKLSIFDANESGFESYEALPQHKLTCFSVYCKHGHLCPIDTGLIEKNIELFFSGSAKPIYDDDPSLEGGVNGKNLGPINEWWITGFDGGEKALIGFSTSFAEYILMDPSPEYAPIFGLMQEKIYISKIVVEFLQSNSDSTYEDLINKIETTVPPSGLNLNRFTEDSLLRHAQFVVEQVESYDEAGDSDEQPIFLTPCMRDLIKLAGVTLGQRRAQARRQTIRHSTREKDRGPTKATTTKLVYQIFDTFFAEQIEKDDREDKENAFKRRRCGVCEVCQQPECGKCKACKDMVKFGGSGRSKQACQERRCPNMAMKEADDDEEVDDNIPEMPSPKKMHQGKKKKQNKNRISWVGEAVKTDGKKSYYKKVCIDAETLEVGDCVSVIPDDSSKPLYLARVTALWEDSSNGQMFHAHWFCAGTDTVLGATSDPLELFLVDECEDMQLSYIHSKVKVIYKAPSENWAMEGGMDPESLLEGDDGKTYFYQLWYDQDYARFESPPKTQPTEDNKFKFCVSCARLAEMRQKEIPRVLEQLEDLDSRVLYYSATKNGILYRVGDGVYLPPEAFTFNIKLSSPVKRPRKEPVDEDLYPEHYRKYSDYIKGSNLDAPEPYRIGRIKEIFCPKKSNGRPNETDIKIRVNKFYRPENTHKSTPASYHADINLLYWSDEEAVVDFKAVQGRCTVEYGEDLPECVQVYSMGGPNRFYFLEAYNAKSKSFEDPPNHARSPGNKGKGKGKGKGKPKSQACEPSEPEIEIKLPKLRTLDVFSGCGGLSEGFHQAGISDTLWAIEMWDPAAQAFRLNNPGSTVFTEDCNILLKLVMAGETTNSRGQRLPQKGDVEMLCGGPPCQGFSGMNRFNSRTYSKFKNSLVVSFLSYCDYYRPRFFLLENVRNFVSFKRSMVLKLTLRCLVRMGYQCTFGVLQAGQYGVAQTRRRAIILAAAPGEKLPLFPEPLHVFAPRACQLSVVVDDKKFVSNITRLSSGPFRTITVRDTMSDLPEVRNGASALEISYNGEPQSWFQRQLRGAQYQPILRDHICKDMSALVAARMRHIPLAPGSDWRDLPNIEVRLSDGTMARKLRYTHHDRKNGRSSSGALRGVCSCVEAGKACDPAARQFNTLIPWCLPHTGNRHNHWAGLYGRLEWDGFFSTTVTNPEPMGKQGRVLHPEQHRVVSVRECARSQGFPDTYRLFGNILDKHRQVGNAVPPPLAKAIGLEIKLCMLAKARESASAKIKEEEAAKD
In assay [5] the target is T2, Sentrin-specific protease 8 (Homo sapiens, UniProt Q96LD8).
T2 sequence (Q96LD8 whole entry): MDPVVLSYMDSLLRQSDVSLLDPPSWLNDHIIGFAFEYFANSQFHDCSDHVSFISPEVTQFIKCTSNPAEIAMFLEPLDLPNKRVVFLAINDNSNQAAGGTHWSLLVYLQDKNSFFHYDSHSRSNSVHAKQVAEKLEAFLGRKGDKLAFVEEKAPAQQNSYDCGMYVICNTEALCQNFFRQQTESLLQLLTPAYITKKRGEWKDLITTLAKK
Description: inhibition of human SENP8 cleavage activity – biochemical, luminescence, SAR follow-up (AID 504501). The class given is functional.

Assay [6] addresses T3, Sentrin-specific protease 7 (Homo sapiens, UniProt Q9BQF6).
T3 sequence (Q9BQF6 whole entry): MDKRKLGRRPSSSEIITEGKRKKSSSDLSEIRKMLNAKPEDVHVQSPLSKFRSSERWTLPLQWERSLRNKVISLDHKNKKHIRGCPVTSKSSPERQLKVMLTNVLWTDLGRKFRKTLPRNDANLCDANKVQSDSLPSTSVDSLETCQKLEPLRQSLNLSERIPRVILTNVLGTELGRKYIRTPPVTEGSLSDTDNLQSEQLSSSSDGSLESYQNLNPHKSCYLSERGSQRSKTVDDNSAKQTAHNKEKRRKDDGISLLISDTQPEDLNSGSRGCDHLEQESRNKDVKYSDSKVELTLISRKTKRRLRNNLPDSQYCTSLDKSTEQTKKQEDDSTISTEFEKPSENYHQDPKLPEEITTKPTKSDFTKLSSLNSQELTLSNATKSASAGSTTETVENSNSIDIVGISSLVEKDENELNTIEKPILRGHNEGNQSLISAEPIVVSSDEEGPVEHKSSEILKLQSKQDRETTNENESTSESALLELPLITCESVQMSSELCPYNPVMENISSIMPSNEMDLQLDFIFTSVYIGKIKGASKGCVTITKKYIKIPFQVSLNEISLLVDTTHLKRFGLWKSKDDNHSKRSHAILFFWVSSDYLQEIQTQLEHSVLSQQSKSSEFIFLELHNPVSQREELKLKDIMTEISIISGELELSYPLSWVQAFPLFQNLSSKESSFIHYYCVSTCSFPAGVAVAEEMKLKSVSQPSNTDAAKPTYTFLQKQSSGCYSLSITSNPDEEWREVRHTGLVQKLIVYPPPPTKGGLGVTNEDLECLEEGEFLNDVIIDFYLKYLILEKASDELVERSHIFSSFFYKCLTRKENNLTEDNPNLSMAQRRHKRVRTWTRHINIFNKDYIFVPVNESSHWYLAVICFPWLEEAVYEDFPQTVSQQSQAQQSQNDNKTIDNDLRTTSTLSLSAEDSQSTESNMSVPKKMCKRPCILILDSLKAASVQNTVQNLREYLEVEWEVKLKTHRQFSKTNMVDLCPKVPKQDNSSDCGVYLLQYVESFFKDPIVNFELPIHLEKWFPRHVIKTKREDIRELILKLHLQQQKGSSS
Description: inhibition of human SENP7 cleavage activity – biochemical, luminescence, SAR follow-up (AID 504497). The class given is functional.

In assay [7] the target is T4, Hexokinase-1 (Homo sapiens, UniProt P19367).
T4 sequence (P19367 whole entry): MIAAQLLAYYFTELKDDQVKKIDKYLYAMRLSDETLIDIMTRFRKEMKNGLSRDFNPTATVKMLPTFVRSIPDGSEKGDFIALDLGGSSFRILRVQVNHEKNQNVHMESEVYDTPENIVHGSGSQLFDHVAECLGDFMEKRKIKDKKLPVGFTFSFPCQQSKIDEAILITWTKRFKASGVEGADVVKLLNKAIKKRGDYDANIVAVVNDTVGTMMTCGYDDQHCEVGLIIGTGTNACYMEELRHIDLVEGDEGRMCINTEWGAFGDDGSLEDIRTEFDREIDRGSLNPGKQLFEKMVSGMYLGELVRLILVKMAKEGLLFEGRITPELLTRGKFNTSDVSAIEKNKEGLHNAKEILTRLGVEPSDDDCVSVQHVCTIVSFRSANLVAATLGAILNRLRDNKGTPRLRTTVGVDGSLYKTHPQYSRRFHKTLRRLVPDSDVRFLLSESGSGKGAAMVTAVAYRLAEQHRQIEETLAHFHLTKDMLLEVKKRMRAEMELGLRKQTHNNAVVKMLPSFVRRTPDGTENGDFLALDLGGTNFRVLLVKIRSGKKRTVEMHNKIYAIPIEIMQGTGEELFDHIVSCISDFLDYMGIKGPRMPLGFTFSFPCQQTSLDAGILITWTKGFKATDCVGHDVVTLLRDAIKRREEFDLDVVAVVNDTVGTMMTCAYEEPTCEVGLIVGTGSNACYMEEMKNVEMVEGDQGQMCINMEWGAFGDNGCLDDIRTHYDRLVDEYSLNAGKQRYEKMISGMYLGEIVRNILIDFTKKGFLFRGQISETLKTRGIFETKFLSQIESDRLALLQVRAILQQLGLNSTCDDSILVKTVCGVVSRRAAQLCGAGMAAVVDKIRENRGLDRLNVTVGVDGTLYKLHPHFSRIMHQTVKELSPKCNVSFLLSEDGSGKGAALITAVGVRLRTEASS
Description: HK1 enzyme activation by HKDC1 hits – biochemical, selectivity assay for HKDC1 activator project, dose response (AID 504762). Format: functional.

Assay [8] in a line: Trypanosoma cruzi growth suppression in host cells – NIH3T3 host cells, beta-gal luminescence, confirmation (AID 2044).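 Further: intracellular parasites grown in NIH/3T3 mouse fibroblasts as host cells; luminescent beta-galactosidase reporter signal from transgenic T. cruzi replicating inside host cells; inhibitors lower the luminescence signal.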 The class given is functional, cell-based.
Assay [9] is described as follows: HEK-293T viability loss after treatment – luminescence, T-cell screen hits, cytotoxicity control for TCR NF-kB inhibitor project, dose response (AID 489026).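 Further: cells exposed to compound about 14 hours before the viability readout.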 Format: functional, cell-based.
A short description of assay [10]: fluconazole-exposed Candida albicans growth modulators – fluorescence, retest, confirmation (AID 2467). Format: functional, cell-based.

Caspase-9, sequence (P55211 1-315 limits assumed): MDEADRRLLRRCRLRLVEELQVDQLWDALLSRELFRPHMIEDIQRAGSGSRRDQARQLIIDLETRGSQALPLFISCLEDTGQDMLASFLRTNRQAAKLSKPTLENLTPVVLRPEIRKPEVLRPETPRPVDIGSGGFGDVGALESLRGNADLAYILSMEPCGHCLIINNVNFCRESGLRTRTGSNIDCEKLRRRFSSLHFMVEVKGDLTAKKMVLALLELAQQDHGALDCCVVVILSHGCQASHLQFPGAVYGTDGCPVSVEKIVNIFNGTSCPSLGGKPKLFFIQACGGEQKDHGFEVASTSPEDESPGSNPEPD
Caspase-9, sequence (P55211 331-416 limits assumed): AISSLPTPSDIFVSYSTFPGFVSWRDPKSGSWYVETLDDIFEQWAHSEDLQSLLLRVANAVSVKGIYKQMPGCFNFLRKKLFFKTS

With `NS(=O)(=O)c1ccc(NC(=O)COC(=O)c2ccc([N+](=O)[O-])s2)cc1`, the AC50 – broadly, the midpoint of the concentration-response curve, whichever way the signal moves – was 22.8 µM (active) in [1], 20.3 µM (active) in assay [2] and 3.33 µM (active) in assay [3]. Also, the IC50 (usually the concentration needed to halve the response being measured) in assay [4] is 25.1 µM (active).

Regarding `CCCCNc1cc(NC(C)=O)cc2cc(OC)c(OC)cc12`, the IC50 in assay [5] and in [6] was > 99 µM (inactive) each time.

In the case of `SC1=Nc2ccccc2C1`, the EC50 (as a rule, the concentration giving half of the maximal effect) is 19.3 µM (active) in assay [7] and 0.487 µM (active) in assay [8].

For `COc1ccc(C(NC(=O)C(C)C)c2ccc3cccnc3c2O)cc1` (stereo not given), the IC50 in [9] is > 80 µM (inactive). For the same compound, the EC50 in assay [10] is 0.692 µM (active).
